Molecules are shown by their SMILES.

We go through one compound from patent US6355655B1, “Heterocyclic sulphonamide derivatives” (Eli Lilly and Company, priority 1998, dated 2002).

The target of the assay is T1, human GluR4B receptor (Homo sapiens, UniProt P48058).
T1 construct: expressed in transfected cells
The assay can be described thus: Potentiation of agonist-induced excitability of human GluR4B receptor expressed in HEK 293 cells. The assay is classed as cell-based. The text has this: The ability of compounds of formula I to potentiate glutamate receptor-mediated response may be determined using fluorescent calcium indicator dyes (Molecular Probes, Eugene, Oreg., Fluo-3) and by measuring glutamate-evoked efflux of calcium into GluR4 transfected HEK293 cells, as described in more detail below.
In one test, 96 well plates containing confluent monolayers of HEK cells stably expressing human GluR4B (obtained as described in European Patent Application Publication Number EP-A1-583917) are prepared. The tissue culture medium in the wells is then discarded, and the wells are each washed once with 200 μl of buffer (glucose, 10 mM, sodium chloride, 138 mM, magnesium chloride, 1 mM, potassium chloride, 5 mM, calcium chloride, 5 mM, N-[2-hydroxyethyl]-piperazine-N-[2-ethanesulfonic acid], 10 mM, to pH 7.1 to 7.3). […]
Each test is then performed as follows. […] A second fluorescent reading is taken after 5 minutes incubation. 15 μl of 400 μM glutamate solution is then added to each well (final glutamate concentration 100 μM), and a third reading is taken. The activities of test compounds and cyclothiazide solutions are determined by subtracting the second from the third reading (fluorescence due to addition of glutamate in the presence or absence of test compound or cyclothiazide) and are expressed relative to enhance fluorescence produced by 100 μM cyclothiazide.

T1 sequence (P48058 21-902): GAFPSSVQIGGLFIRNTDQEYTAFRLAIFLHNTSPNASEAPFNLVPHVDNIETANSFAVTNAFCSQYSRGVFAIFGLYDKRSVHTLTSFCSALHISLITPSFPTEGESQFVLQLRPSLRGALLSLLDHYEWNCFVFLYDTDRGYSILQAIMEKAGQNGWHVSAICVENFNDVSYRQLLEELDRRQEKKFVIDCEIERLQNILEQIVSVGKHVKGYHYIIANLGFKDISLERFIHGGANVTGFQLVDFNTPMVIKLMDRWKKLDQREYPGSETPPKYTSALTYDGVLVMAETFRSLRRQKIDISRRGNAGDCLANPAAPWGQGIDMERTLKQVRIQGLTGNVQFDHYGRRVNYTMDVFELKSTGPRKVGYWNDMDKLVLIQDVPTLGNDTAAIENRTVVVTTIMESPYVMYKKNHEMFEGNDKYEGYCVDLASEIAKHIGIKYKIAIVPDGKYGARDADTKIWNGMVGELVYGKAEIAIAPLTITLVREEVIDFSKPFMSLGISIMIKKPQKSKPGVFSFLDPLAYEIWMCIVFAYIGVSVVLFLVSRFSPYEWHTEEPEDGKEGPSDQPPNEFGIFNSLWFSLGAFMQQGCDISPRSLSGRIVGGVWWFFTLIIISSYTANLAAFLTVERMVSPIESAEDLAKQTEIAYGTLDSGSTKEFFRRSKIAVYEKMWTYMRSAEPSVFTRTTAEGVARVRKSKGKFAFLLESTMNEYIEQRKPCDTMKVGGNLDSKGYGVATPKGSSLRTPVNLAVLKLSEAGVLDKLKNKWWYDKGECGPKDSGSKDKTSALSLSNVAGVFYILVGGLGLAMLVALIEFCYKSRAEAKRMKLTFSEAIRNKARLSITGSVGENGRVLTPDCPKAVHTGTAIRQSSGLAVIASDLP

For the compound `NS(=O)(=O)c1cc2c(cc1Cl)NC(C1CC3C=CC1C3)NS2(=O)=O` (stereo not shown) [cyclothiazide], the “potentiation of agonist-induced excitability” value was “potentiate agonist-induced excitability”.
